Data from patent US10487093B2, “Heterocyclic compounds, in particular 2-oxo-4,4,5,5,6,6,7,7-octahydrobenzoxazole derivatives, and their use as antibacterial compounds” (priority 2016, dated 2019).
In brackets after ≈: the same amount, converted by molar mass. Read-outs that look alike come from different tables or passages of the source.

How the values were obtained:
Format in all cases: cell-based
[1] = tested on: Clostridium difficile ATCC 700057; test: MIC against anaerobes, agar dilution (CLSI), reference strain; details: Clostridioides difficile, ATCC700057, 48 h, read-out: MIC, C. difficile ATCC 700057
[2] = tested on: Bacteroides fragilis ATCC 25285; test: as above; details: ATCC25285, 48 h, read-out: MIC, B. fragilis ATCC 25285
[3] = tested on: Bacteroides thetaiotaomicron ATCC 29741; test: microbe, parasite or virus in culture; details: ATCC29741, 48 h, read-out: MIC, B. thetaiotaomicron ATCC
[4] = tested on: strains of Clostridium perfringens; test: microbe, parasite or virus in culture
[5] = tested on: strains of Finegoldia magna; test: MIC against anaerobes, agar dilution (CLSI), clinical isolates
[6] = tested on: strains of Parvimonas micra; test: as above
[7] = tested on: strains of Peptoniphilus harei; test: as above
[8] = tested on: strains of Peptostreptococcus anaerobius; test: as above
[9] = tested on: strains of Propionibacterium acnes; test: as above; details: Cutibacterium acnes
[10] = tested on: strains of Bacteroides fragilis; test: as above
[11] = tested on: strains of Bacteroides thetaiotaomicron; test: microbe, parasite or virus in culture
[12] = tested on: strains of Prevotella bivia; test: MIC against anaerobes, agar dilution (CLSI), clinical isolates
[13] = tested on: strains of Prevotella melaninogenica; test: as above

CN[C@H](CC(C)C)C(=O)N[C@H]1C(=O)N[C@@H](CC(N)=O)C(=O)N[C@H]2C(=O)N[C@H]3C(=O)N[C@H](C(=O)N[C@H](C(=O)O)c4cc(O)cc(O)c4-c4cc3ccc4O)[C@H](O)c3ccc(c(Cl)c3)Oc3cc2cc(c3O[C@@H]2O[C@H](CO)[C@@H](O)[C@H](O)[C@H]2O[C@H]2C[C@](C)(N)[C@H](O)[C@H](C)O2)Oc2ccc(cc2Cl)[C@H]1O [VAN, vancomycin, reference compound]
MIC [1]: 1 to 4 µg/mL (≈ 0.69 to 2.76 µM) | MIC [2]: 16 to 64 µg/mL (≈ 11 to 44.2 µM) | MIC [3]: 16 to 64 µg/mL (≈ 11 to 44.2 µM) | MIC [4]: < 1 µg/mL | MIC ([5]; Finegoldia magna strain 1): A (a MIC (in μg/mL) of less than 1 is assigned the letter A) | MIC ([5]; Finegoldia magna strain 2): A (a MIC (in μg/mL) of less than 1 is assigned the letter A) | MIC ([5]; Finegoldia magna strain 3): A (a MIC (in μg/mL) of less than 1 is assigned the letter A) | MIC ([5]; Finegoldia magna strain 4): A (a MIC (in μg/mL) of less than 1 is assigned the letter A) | MIC ([5]; Finegoldia magna strain 5): A (a MIC (in μg/mL) of less than 1 is assigned the letter A) | MIC ([5]; Finegoldia magna strain 6, read-out: MIC): < 1 µg/mL | MIC ([5]; Finegoldia magna strain 7): A (a MIC (in μg/mL) of less than 1 is assigned the letter A) | MIC ([5]; Finegoldia magna strain 8): A (a MIC (in μg/mL) of less than 1 is assigned the letter A) | MIC ([5]; Finegoldia magna strain 9): A (a MIC (in μg/mL) of less than 1 is assigned the letter A) | MIC ([5]; Finegoldia magna strain 10): A (a MIC (in μg/mL) of less than 1 is assigned the letter A) | MIC ([5]; Finegoldia magna strain 11): A (a MIC (in μg/mL) of less than 1 is assigned the letter A) | MIC ([5]; Finegoldia magna strain 12): A (a MIC (in μg/mL) of less than 1 is assigned the letter A) | MIC ([6]; Parvimonas micra strain 1): < 1 µg/mL | MIC ([6]; Parvimonas micra strain 2): < 1 µg/mL | MIC ([6]; Parvimonas micra strain 3): < 1 µg/mL | MIC ([6]; Parvimonas micra strain 4): 1 to 4 µg/mL (≈ 0.69 to 2.76 µM) | MIC ([6]; Parvimonas micra strain 5): 1 to 4 µg/mL (≈ 0.69 to 2.76 µM) | MIC ([6]; Parvimonas micra strain 6): < 1 µg/mL | MIC ([6]; Parvimonas micra strain 7): 1 to 4 µg/mL (≈ 0.69 to 2.76 µM) | MIC ([6]; Parvimonas micra strain 8): < 1 µg/mL | MIC ([6]; Parvimonas micra strain 9): < 1 µg/mL | MIC ([6]; Parvimonas micra strain 10): < 1 µg/mL | MIC ([6]; Parvimonas micra strain 11): < 1 µg/mL | MIC ([6]; Parvimonas micra strain 12): < 1 µg/mL | MIC ([7]; Peptoniphilus harei strain 1): A (a MIC (in μg/mL) of less than 1 is assigned the letter A) | MIC ([7]; Peptoniphilus harei strain 2): A (a MIC (in μg/mL) of less than 1 is assigned the letter A) | MIC ([7]; Peptoniphilus harei strain 3): A (a MIC (in μg/mL) of less than 1 is assigned the letter A) | MIC ([7]; Peptoniphilus harei strain 4): A (a MIC (in μg/mL) of less than 1 is assigned the letter A) | MIC ([7]; Peptoniphilus harei strain 5): A (a MIC (in μg/mL) of less than 1 is assigned the letter A) | MIC ([7]; Peptoniphilus harei strain 6, read-out: MIC): < 1 µg/mL | MIC ([7]; Peptoniphilus harei strain 7): A (a MIC (in μg/mL) of less than 1 is assigned the letter A) | MIC ([7]; Peptoniphilus harei strain 8): A (a MIC (in μg/mL) of less than 1 is assigned the letter A) | MIC ([7]; Peptoniphilus harei strain 9): A (a MIC (in μg/mL) of less than 1 is assigned the letter A) | MIC ([7]; Peptoniphilus harei strain 10): A (a MIC (in μg/mL) of less than 1 is assigned the letter A) | MIC ([7]; Peptoniphilus harei strain 11): A (a MIC (in μg/mL) of less than 1 is assigned the letter A) | MIC ([7]; Peptoniphilus harei strain 12): A (a MIC (in μg/mL) of less than 1 is assigned the letter A) | MIC ([8]; Peptostreptococcus anaerobius strain 1): < 1 µg/mL | MIC ([8]; Peptostreptococcus anaerobius strain 2): < 1 µg/mL | MIC ([8]; Peptostreptococcus anaerobius strain 3): < 1 µg/mL | MIC ([8]; Peptostreptococcus anaerobius strain 4): > 64 µg/mL | MIC ([8]; Peptostreptococcus anaerobius strain 5): < 1 µg/mL | MIC ([8]; Peptostreptococcus anaerobius strain 6): < 1 µg/mL | MIC ([8]; Peptostreptococcus anaerobius strain 7): < 1 µg/mL | MIC ([8]; Peptostreptococcus anaerobius strain 8): < 1 µg/mL | MIC ([8]; Peptostreptococcus anaerobius strain 9): < 1 µg/mL | MIC ([8]; Peptostreptococcus anaerobius strain 10): < 1 µg/mL | MIC ([9]; Propionibacterium acnes strain 1): < 1 µg/mL | MIC ([9]; Propionibacterium acnes strain 2): < 1 µg/mL | MIC ([9]; Propionibacterium acnes strain 3): < 1 µg/mL | MIC ([9]; Propionibacterium acnes strain 4): < 1 µg/mL | MIC ([9]; Propionibacterium acnes strain 5): < 1 µg/mL | MIC ([9]; Propionibacterium acnes strain 6): < 1 µg/mL | MIC ([9]; Propionibacterium acnes strain 7): < 1 µg/mL | MIC ([9]; Propionibacterium acnes strain 8): < 1 µg/mL | MIC ([9]; Propionibacterium acnes strain 9): < 1 µg/mL | MIC ([9]; Propionibacterium acnes strain 10): < 1 µg/mL | MIC ([9]; Propionibacterium acnes strain 11): < 1 µg/mL | MIC ([9]; Propionibacterium acnes strain 12): 4 to 16 µg/mL (≈ 2.76 to 11 µM) | MIC ([10]; Bacteroides fragilis strain 1): 16 to 64 µg/mL (≈ 11 to 44.2 µM) | MIC ([10]; Bacteroides fragilis strain 2): 16 to 64 µg/mL (≈ 11 to 44.2 µM) | MIC ([10]; Bacteroides fragilis strain 3): 4 to 16 µg/mL (≈ 2.76 to 11 µM) | MIC ([10]; Bacteroides fragilis strain 4): 16 to 64 µg/mL (≈ 11 to 44.2 µM) | MIC ([10]; Bacteroides fragilis strain 5): 16 to 64 µg/mL (≈ 11 to 44.2 µM) | MIC ([10]; Bacteroides fragilis strain 6): 4 to 16 µg/mL (≈ 2.76 to 11 µM) | MIC ([10]; Bacteroides fragilis strain 7): 4 to 16 µg/mL (≈ 2.76 to 11 µM) | MIC ([10]; Bacteroides fragilis strain 8): 16 to 64 µg/mL (≈ 11 to 44.2 µM) | MIC ([10]; Bacteroides fragilis strain 9): 4 to 16 µg/mL (≈ 2.76 to 11 µM) | MIC ([10]; Bacteroides fragilis strain 10): 16 to 64 µg/mL (≈ 11 to 44.2 µM) | MIC ([10]; Bacteroides fragilis strain 11): 16 to 64 µg/mL (≈ 11 to 44.2 µM) | MIC ([10]; Bacteroides fragilis strain 12): 16 to 64 µg/mL (≈ 11 to 44.2 µM) | MIC ([11]; Bacteroides thetaiotaomicron strain 1, read-out: MIC): 16 to 64 µg/mL (≈ 11 to 44.2 µM) | MIC ([11]; Bacteroides thetaiotaomicron strain 2, read-out: MIC): 16 to 64 µg/mL (≈ 11 to 44.2 µM) | MIC ([11]; Bacteroides thetaiotaomicron strain 3, read-out: MIC): 16 to 64 µg/mL (≈ 11 to 44.2 µM) | MIC ([11]; Bacteroides thetaiotaomicron strain 4, read-out: MIC): 16 to 64 µg/mL (≈ 11 to 44.2 µM) | MIC ([11]; Bacteroides thetaiotaomicron strain 5, read-out: MIC): 16 to 64 µg/mL (≈ 11 to 44.2 µM) | MIC ([11]; Bacteroides thetaiotaomicron strain 6, read-out: MIC): 16 to 64 µg/mL (≈ 11 to 44.2 µM) | MIC ([11]; Bacteroides thetaiotaomicron strain 7, read-out: MIC): 16 to 64 µg/mL (≈ 11 to 44.2 µM) | MIC ([11]; Bacteroides thetaiotaomicron strain 8, read-out: MIC): 16 to 64 µg/mL (≈ 11 to 44.2 µM) | MIC ([11]; Bacteroides thetaiotaomicron strain 9, read-out: MIC): < 1 µg/mL | MIC ([11]; Bacteroides thetaiotaomicron strain 10, read-out: MIC): 16 to 64 µg/mL (≈ 11 to 44.2 µM) | MIC ([11]; Bacteroides thetaiotaomicron strain 11, read-out: MIC): 16 to 64 µg/mL (≈ 11 to 44.2 µM) | MIC ([12]; Prevotella bivia strain 1): > 64 µg/mL | MIC ([12]; Prevotella bivia strain 2): > 64 µg/mL | MIC ([12]; Prevotella bivia strain 3): 16 to 64 µg/mL (≈ 11 to 44.2 µM) | MIC ([12]; Prevotella bivia strain 4): > 64 µg/mL | MIC ([12]; Prevotella bivia strain 5): > 64 µg/mL | MIC ([12]; Prevotella bivia strain 6): > 64 µg/mL | MIC ([12]; Prevotella bivia strain 7): > 64 µg/mL | MIC ([12]; Prevotella bivia strain 8): 16 to 64 µg/mL (≈ 11 to 44.2 µM) | MIC ([12]; Prevotella bivia strain 9): > 64 µg/mL | MIC ([12]; Prevotella bivia strain 10): 16 to 64 µg/mL (≈ 11 to 44.2 µM) | MIC ([13]; Prevotella melaninogenica strain 1): > 64 µg/mL | MIC ([13]; Prevotella melaninogenica strain 2): 4 to 16 µg/mL (≈ 2.76 to 11 µM) | MIC ([13]; Prevotella melaninogenica strain 3): > 64 µg/mL | MIC ([13]; Prevotella melaninogenica strain 4): > 64 µg/mL | MIC ([13]; Prevotella melaninogenica strain 5): 16 to 64 µg/mL (≈ 11 to 44.2 µM) | MIC ([13]; Prevotella melaninogenica strain 6): > 64 µg/mL | MIC ([13]; Prevotella melaninogenica strain 7): 16 to 64 µg/mL (≈ 11 to 44.2 µM) | MIC ([13]; Prevotella melaninogenica strain 8): 4 to 16 µg/mL (≈ 2.76 to 11 µM) | MIC ([13]; Prevotella melaninogenica strain 9): 4 to 16 µg/mL (≈ 2.76 to 11 µM) | MIC ([13]; Prevotella melaninogenica strain 10): > 64 µg/mL | MIC ([13]; Prevotella melaninogenica strain 11): > 64 µg/mL
